Assay results published in article PMC11180795 (Frontiers in Pharmacology, 2024).

What was measured:
IL-6 = assay: Th1/Th2 cytokine measurement (Cytometric Bead Array) in LPS-stimulated Raw 264.7 cells, IL-6; format: cell-based, Murine; conditions: compound at 20 µM, LPS 0.1 μg/mL, 24 h; stimulated untreated control 175.96 pg/mL
Method: Raw 264.7 cells were seeded at 2 × 10^5 cells/mL in a 48-well microplate and allowed to adhere for 24 h, then treated with LPS 0.1 μg/mL and with compounds (1), (5) and (6) at 20 µM. Untreated cells and indomethacin (10 µM) were used as controls. After 24 h of incubation, the supernatant was collected and the amount of pro-inflammatory Th1 cytokines (IFN-γ, TNF-α, and IL-2) and anti-inflammatory Th2 cytokines (IL-4, IL-6, and IL-10) released measured. The experiment was performed according to the manufacturer’s instructions using BD™ Cytometric Bead Array (CBA) […] Th1/Th2 Cytokine Kit (BD-Biosciences), and data were acquired on a BD LSR Fortessa™ cell analyzer flow cytometer.

COX-1 = biological target: T1, COX-1 (Mus musculus, UniProt P22437); assay: Fluorometric COX activity assay in lysate of LPS-treated Raw 264.7 cells, COX-1; format: cell-based, Murine; conditions: compound at 20 µM, LPS 0.1 μg/mL, 24 h; untreated control 85.19 µU/mg
T1 construct: The cell lysate was centrifuged at 12000 x g for 3 min and the supernatant was collected for COX activity assay; endogenous in cells
T1 sequence (P22437 27-602): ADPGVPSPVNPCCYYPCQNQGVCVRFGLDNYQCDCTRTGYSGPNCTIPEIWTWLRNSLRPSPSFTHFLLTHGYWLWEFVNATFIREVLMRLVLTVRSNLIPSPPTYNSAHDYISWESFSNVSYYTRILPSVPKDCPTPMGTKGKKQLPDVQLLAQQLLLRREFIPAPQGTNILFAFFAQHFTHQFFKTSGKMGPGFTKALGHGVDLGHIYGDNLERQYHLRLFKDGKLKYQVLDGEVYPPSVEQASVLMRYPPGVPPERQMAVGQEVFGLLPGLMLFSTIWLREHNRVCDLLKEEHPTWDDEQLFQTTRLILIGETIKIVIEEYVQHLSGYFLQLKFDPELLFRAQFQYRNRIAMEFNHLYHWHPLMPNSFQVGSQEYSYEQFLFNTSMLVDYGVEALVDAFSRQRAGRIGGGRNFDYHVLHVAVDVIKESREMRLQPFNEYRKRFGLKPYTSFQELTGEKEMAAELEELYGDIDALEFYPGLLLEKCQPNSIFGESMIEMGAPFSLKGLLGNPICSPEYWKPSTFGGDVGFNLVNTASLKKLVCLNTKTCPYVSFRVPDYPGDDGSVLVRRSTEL
Method: The fluorometric cyclooxygenase activity assay kit (Biovision) was used to evaluate the activity of COX-1 and COX-2 enzymes. Raw 264.7 cells were seeded at 2 × 10^5 cells/mL in a 48-well microplate, and allowed to adhere for 24 h, then treated with LPS 0.1 μg/mL and compounds (1), (5) and (6) at 20 µM against Raw 264.7 cells. After 24 h the cyclooxygenase enzyme (COX-1 and COX-2) activity assay was performed. Cells were detached with TNE buffer (Tris 40 mM, NaCl 150 mM, EDTA 1 mM) and washed with PBS (1x), then re-suspended in 1 mL PBS (1x), transferred into 1.5 mL tube, and centrifuged at 500 x g for 3 min. The pellet was then re-suspended in 0.5 mL of lysis buffer with a protease inhibitor cocktail, vortexed, and incubated at 4°C for 5 min. The cell lysate was centrifuged at 12000 x g for 3 min and the supernatant was collected for COX activity assay. The COX activity was assessed using the fluorometric cyclooxygenase activity assay kit (Biovision) following the manufacturer’s instructions. The assay includes COX-1 and COX-2 specific inhibitors to differentiate the activity of COX-1 and COX-2 as well as other peroxidases. Indomethacin (10 µM) was used as a standard drug and appropriate controls were also included.

SMILES | IL-6 level (IL-6) | COX-1 activity (COX-1)
CC(C)=CCc1c2c(c3oc4c(O)cccc4c(=O)c3c1O)C=CC(C)(C)O2 [Compound 1, Ananixanthone] | 144.25 pg/mL | 52.55 µU/mg
CC(C)=CCC/C(C)=C/C[C@]12C[C@@H](CC=C(C)C)C(C)(C)[C@](C/C=C(\C)CCC=C(C)C)(C(=O)C(C(=O)c3ccc(O)c(O)c3)=C1O)C2=O [Compound 5, Guttiferone O] | – | 32.28 µU/mg
